Measurements published in patent US5872126A, “Methods and compositions for treating preterm labor” (priority 1997, dated 1999).
Several values for one entry are separate records, joined by “and”; a condition that tells them apart may be missing. Identical values can stand only once.

Assays:
[1] = cited from earlier work; for side effects: human, in vivo
[2] = system: human type 2 enzyme; settings: cited from earlier work
[3] = biological target: T1, rat type 1 5α-reductase (Rattus norvegicus, UniProt P24008); assay: 5α-reductase assay, COS cell expressed rat type 1; assay type: biochemical; settings: recombinant rat type 1; read-out: IC50 finasteride
T1 construct: made in house; host or cells: COS cells
T1 sequence (P24008 1-259): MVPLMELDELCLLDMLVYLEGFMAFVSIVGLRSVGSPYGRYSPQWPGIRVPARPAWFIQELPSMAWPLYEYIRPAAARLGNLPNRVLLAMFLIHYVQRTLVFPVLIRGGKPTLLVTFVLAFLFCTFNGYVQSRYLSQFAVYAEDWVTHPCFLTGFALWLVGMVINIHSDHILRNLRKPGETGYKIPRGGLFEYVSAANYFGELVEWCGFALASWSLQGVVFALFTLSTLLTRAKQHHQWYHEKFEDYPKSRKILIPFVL
Description: (§1) Rat placenta was obtained from Bioproducts for Science. The tissue was homogenized in 10 volumes of buffer containing 0.25 sucrose, 40 mM potassium phosphate pH 6.5, 5 mM magnesium sulfate, 25 mM potassium chloride, 1 mM phenylmethylsulfonyl fluoride, and 1 mM dithiothreitol using a Potter Elverhjem homogenizer. The homogenate was centrifuged at 100,000×g for 60 minutes at 4° C. The pellet was resuspended in 1.5 volumes of buffer. Glycerol was added to the resuspended pellet to a final concentration of 20%. COS cell expressed rat 5α-reductase was used as the source of type 1 and type 2 in these studies for comparison.
(§2) All samples in the enzyme assay were tested in a reaction mixture containing 33 mM succinic acid, 44 mM imidazole, 33 mM diethanolamine (SID), pH 5.5 and pH 7.5, 0.5 μM [7-^3 H]-testosterone (specific activity approximately 20-30 Ci/mmol), 1.5 μM unlabeled testosterone, 1 mM DTT and […] NADPH in a final volume of […]. The assay was initiated by the addition of enzyme and incubated at 37° C. for 15 min.

[4] = biological target: T2, 5α-reductase in rat placenta (Rattus norvegicus, UniProt P24008); assay: 5α-reductase assay, rat placenta microsomes; assay type: biochemical; settings: read-out: IC50 finasteride
T2 construct: microsomes prepared from rat placenta; tissue Bioproducts for Science; host or cells: rat placenta (microsomes, 100,000×g pellet of homogenate)
T2 sequence (P24008 1-259): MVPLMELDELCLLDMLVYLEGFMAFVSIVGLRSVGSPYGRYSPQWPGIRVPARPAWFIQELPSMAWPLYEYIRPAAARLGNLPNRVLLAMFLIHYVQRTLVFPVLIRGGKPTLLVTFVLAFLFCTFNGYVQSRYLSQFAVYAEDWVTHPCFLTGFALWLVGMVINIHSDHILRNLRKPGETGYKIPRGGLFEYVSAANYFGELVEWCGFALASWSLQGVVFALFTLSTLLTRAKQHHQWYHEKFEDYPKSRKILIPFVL
Description: (§3) The 5α-reductase content of microsomes prepared from rat placenta was determined.
as §1, §2

[5] = biological target: T3, rat type 2 5α-reductase (Rattus norvegicus, UniProt P31214); assay: 5α-reductase assay, COS cell expressed rat type 2; assay type: biochemical; settings: read-out: IC50 finasteride
T3 construct: made in house; host or cells: COS cells
T3 sequence (P31214 1-254): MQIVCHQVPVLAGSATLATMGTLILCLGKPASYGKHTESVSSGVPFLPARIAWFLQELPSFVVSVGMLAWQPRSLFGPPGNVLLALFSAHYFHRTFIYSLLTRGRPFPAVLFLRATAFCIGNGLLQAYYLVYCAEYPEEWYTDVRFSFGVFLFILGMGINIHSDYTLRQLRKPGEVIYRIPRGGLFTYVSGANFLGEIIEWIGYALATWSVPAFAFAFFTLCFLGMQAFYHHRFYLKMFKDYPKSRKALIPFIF
Description: as §1, §2

[6] = system: parturition in pregnant rats; settings: oral dose 10 mg/kg on GD 21; rats treated with 200 mg/kg progesterone subcutaneously; cited from earlier work
[7] = system: parturition in the rat; assay: Parturition with test compound and progesterone antagonist RU-486 (Example 3); assay type: in vivo, Sprague-Dawley rat; settings: RU-486 10 mg/kg on GD 21 (Group 2)
Description: In order to determine if the effects in the experiments conducted in Examples 1 and 2 were due to decreased progesterone catabolism associated with inhibition of 5α-reductase by the 5α-reductase type 1 inhibitor 3-oxo-4-aza-4,7β-dimethyl-16β-(4-chlorophenoxy)-5α-androstane ("test compound"), the following study was performed with the 5α-reductase inhibitor 3-oxo-4-aza-4,7β-dimethyl-16β-(4-chlorophenoxy)-5α-androstane and the progesterone antagonist RU-486.
Fifty-six pregnant female Sprague-Dawley rats (Charles River Laboratories, Raleigh, N.C.), approximately 10.5 weeks old weighing from 212 to 319 grams were employed in the study. They were fed and housed as described in EXAMPLE 1. The females were assigned to the following groups based on a weight independent random allocation scheme:
Control (Control article)
test compound @ 20 mg/kg/day
A dose of 10 mg/kg off RU-486 was selected based on the studies of Abdellilah et al., Progesterone and Mifepristone modify principally the response of circular myometrium to oxytocin in preparturient rats: comparison with response to acetylcholine and to calcium J. Pharmacol. and Exp. Therp.
The drugs were administered by oral gavage. The control article and vehicle consisted of 0.5% methylcellulose in deionized water with 0.02% sodium lauryl sulfate (SLS) and were prepared on a weekly basis and refrigerated when not in use. The test compound formulation (4 mg/mL, in vehicle) was prepared on a weekly basis and was refrigerated when not in use. The RU-486 formulation (2 mg base compound/mL, in 0.5% methylcellulose in deionized water) was prepared on a daily basis.

[8] = system: parturition in mice homozygous for genetic null mutations of type 1 5α-reductase; settings: mice homozygous for type 1 5α-reductase null mutations; cited from earlier work
[9] = system: pregnancy and myometrial contractile activity in the rat; settings: exogenous progesterone; cited from earlier work
[10] = substrate: C[C@]12CC[C@H]3[C@@H](CCC4=CC(=O)CC[C@@]43C)[C@@H]1CC[C@@H]2O; assay: 5α-reductase assay, COS cell expressed rat type 2; assay type: biochemical; settings: other: rat type 2; 37.0 °C
Description: as §1, §2

[11] = substrate: C[C@]12CC[C@H]3[C@@H](CCC4=CC(=O)CC[C@@]43C)[C@@H]1CC[C@@H]2O; assay: 5α-reductase assay, rat placenta microsomes; assay type: biochemical; settings: other: rat placenta microsomes; 37.0 °C
Description: as §3, §1, §2

[12] = substrate: C[C@]12CC[C@H]3[C@@H](CCC4=CC(=O)CC[C@@]43C)[C@@H]1CC[C@@H]2O; assay: 5α-reductase assay, COS cell expressed rat type 1; assay type: biochemical; settings: other: recombinant rat type 1; 37.0 °C
Description: as §1, §2

## CC(C)(C)NCC(O)c1cc(O)cc(O)c1 (stereo not drawn) [terbutaline]
[1]
  side effects: side effects similar to those of ritodrine

## CC(C)(C)NC(=O)[C@H]1CC[C@H]2[C@@H]3CC[C@H]4NC(=O)C=C[C@]4(C)[C@H]3CC[C@]12C [finasteride, 17β-(N-tert-butylcarbamoyl)-3-oxo-4-aza-5α-androst-1-en-3-one]
[2]
  inhibition of the human type 2 enzyme: potent inhibitor
[3]
  IC50: 0.013 µM
[4]
  IC50: 0.011 µM
[5]
  IC50: 0.001 µM

## CC#C[C@]1(O)CC[C@H]2[C@@H]3CCC4=CC(=O)CCC4=C3[C@@H](c3ccc(N(C)C)cc3)C[C@@]21C [RU-486, reference compound]
[6]
  induction of parturition: able to induce parturition
[7]; only females completing delivery, 10 mg/kg
  Mean Length of Gestation ± SD: 22.3 days and 22.3 ± 0.4 days
[7]; delivery day GD 22.0
  number of females completing parturition: 7
[7]; delivery day GD 22.5
  number of females completing parturition: 5
[7]; delivery day GD 23.0
  number of females completing parturition: 2
[8]
  mice in which parturition was induced: 100%

## CCO [ethanol]
[1]; compared with ritodrine
  effectiveness in preventing premature labor: as effective as ritodrine in preventing premature labor
  reduction in the incidence of fetal respiratory distress: does not produce a corresponding reduction in the incidence of fetal respiratory distress

## O=S(=O)([O-])[O-].[Mg+2] [magnesium sulfate]
[1]; above 4 to 8 mg/dL
  adverse effects at plasma concentrations above the therapeutic range: inhibition of cardiac conduction and neuromuscular transmission, respiratory depression and cardiac arrest

## CC(C)(C)NCC(O)c1ccc(O)c(CO)c1 (stereo not drawn) [salbutamol]
[1]
  side effects: side effects similar to those of ritodrine

## CC(=O)[C@H]1CC[C@H]2[C@@H]3CCC4=CC(=O)CC[C@]4(C)[C@H]3CC[C@]12C [progesterone]
[9]
  effect on pregnancy and myometrial contractile activity: prolong pregnancy and impair myometrial contractile activity

## C[C@]12CC[C@@H](O)C[C@@H]1CC[C@@H]1[C@@H]2CC[C@]2(C)[C@@H](O)CC[C@@H]12 [Example 3α-Adiol, 5α-androstan-3α,17β-diol]
[8]
  mice in which parturition was induced: 93%

## CC(NCCc1ccc(O)cc1)C(O)c1ccc(O)cc1 (stereo not drawn) [ritodrine]
[1]
  side effects: tachycardia, increased renin secretion, hyperglycemia (and reactive hypoglycemia in the infant)

B1: rat type 2 5α-reductase (Rattus norvegicus) (protein)
chain: MQIVCHQVPVLAGSATLATMGTLILCLGKPASYGKHTESVSSGVPFLPARIAWFLQELPSFVVSVGMLAWQPRSLFGPPGNVLLALFSAHYFHRTFIYSLLTRGRPFPAVLFLRATAFCIGNGLLQAYYLVYCAEYPEEWYTDVRFSFGVFLFILGMGINIHSDYTLRQLRKPGEVIYRIPRGGLFTYVSGANFLGEIIEWIGYALATWSVPAFAFAFFTLCFLGMQAFYHHRFYLKMFKDYPKSRKALIPFIF
notes: made in house; host or cells: COS cells
[10]
  Km: 0.15 µM

B2: 5α-reductase in rat placenta (Rattus norvegicus) (protein)
chain: MVPLMELDELCLLDMLVYLEGFMAFVSIVGLRSVGSPYGRYSPQWPGIRVPARPAWFIQELPSMAWPLYEYIRPAAARLGNLPNRVLLAMFLIHYVQRTLVFPVLIRGGKPTLLVTFVLAFLFCTFNGYVQSRYLSQFAVYAEDWVTHPCFLTGFALWLVGMVINIHSDHILRNLRKPGETGYKIPRGGLFEYVSAANYFGELVEWCGFALASWSLQGVVFALFTLSTLLTRAKQHHQWYHEKFEDYPKSRKILIPFVL
notes: microsomes prepared from rat placenta; tissue Bioproducts for Science; host or cells: rat placenta (microsomes, 100,000×g pellet of homogenate)
[11]
  Km: 5.2 µM

B3: rat type 1 5α-reductase (Rattus norvegicus) (protein)
chain: MVPLMELDELCLLDMLVYLEGFMAFVSIVGLRSVGSPYGRYSPQWPGIRVPARPAWFIQELPSMAWPLYEYIRPAAARLGNLPNRVLLAMFLIHYVQRTLVFPVLIRGGKPTLLVTFVLAFLFCTFNGYVQSRYLSQFAVYAEDWVTHPCFLTGFALWLVGMVINIHSDHILRNLRKPGETGYKIPRGGLFEYVSAANYFGELVEWCGFALASWSLQGVVFALFTLSTLLTRAKQHHQWYHEKFEDYPKSRKILIPFVL
notes: as for B1
[12]
  Km: 1.7 µM
